Source: patent US20200399308A1, “COMPOUNDS AND METHODS FOR ELICITING ANTIMICROBIAL ACTIVITY” (Technion Research & Development Foundation Limited, priority 2018, published 2020)
Values after ≈ are worked out from the molar mass of the structure shown. Where two headings read alike, the source gives them in different places. Non-standard residues stand in square brackets, D forms with d. Residues, ends and D or L forms follow the SMILES beside them. *: point of attachment. 12Ado = NCCCCCCCCCCCC(=O)O; Decanoyl = CCCCCCCCCC(=O)*; Octanoyl = CCCCCCCC(=O)*

Legend:
[1] = Charge at physiological pH (Q); assay type: physicochemical
[2] = Hydrophobicity (H) by HPLC elution from C18 column; assay type: physicochemical; settings: percentage of acetonitrile required for elution
[3] = Critical aggregation concentration by light scattering in PBS; assay type: physicochemical; settings: light scattering in phosphate-buffered saline
Experimental: (§1) Organization of the compounds in aqueous solution was assessed by light-scattering measurements in phosphate buffered saline (PBS; 10 mM Na2HPO4, 150 mM NaCl, pH=7.0). Hemolytic assays were performed as described elsewhere, using fresh mouse red blood cells.
(§2) The mean value (±SD) is shown for Compound C; Minimum inhibitory concentration (MIC) of compounds required to inhibit bacterial proliferation after overnight incubation.

Hemolytic assay = assay type: cell-based; settings: fresh mouse red blood cells (1%); hemolysis of 50% of mouse red blood cells (1%) after 3 hours in PBS; read-out: LC50, fifty percent lethal concentration (hemolysis)
Experimental: as §1, §2

Escherichia coli 25922 [4] = assay: Minimal inhibitory concentration; assay type: cell-based
Experimental: (§3) Minimal inhibitory concentrations (MICs) were determined as previously described. […] MICs were determined by microdilution susceptibility testing in 96-well plates (by Nunc) using inocula of 10^5 bacteria per ml. Cell populations were evaluated by optical density measurements at 620 nm and were calibrated against a set of standards. Hundred (100) μl of a bacterial suspension were added to 100 μl of culture medium (control) or to 100 μl of culture medium containing various tested compound concentrations in 2-fold serial dilutions. Inhibition of proliferation was determined by optical density measurements at 620 nm after an incubation period of 24 hours at 37° C. Data were obtained from ≥2 independent experiments performed in duplicate.
as §2

Escherichia coli ML35p = assay: Minimal inhibitory concentration; assay type: cell-based; settings: Ec ML35p, overnight incubation
Experimental: as §3, §2

[5] = test system: Klebsiella pneumoniae 1287; assay: Minimal inhibitory concentration; assay type: cell-based
Experimental: as §3, §2

[6] = test system: Klebsiella pneumoniae C2 (carbapenemase 2-producing strain); assay: Minimal inhibitory concentration; assay type: cell-based
Experimental: as §3, §2

[7] = test system: Pseudomonas aeruginosa 11662; assay: Minimal inhibitory concentration; assay type: cell-based
Experimental: as §3, §2

[8] = test system: Pseudomonas aeruginosa 11816; assay: Minimal inhibitory concentration; assay type: cell-based
Experimental: as §3, §2

[9] = test system: Salmonella enterica serovar Choleraesuis 7308; assay: Minimal inhibitory concentration; assay type: cell-based
Experimental: as §3, §2

[10] = test system: Salmonella enterica serovar Typhimurium 14028; assay: Minimal inhibitory concentration; assay type: cell-based
Experimental: as §3, §2

[11] = test system: Escherichia coli mutant ML-35p; assay: Outer and cytoplasmic membrane permeabilization (nitrocefin / ONPG); assay type: cell-based; settings: E. coli ML-35p, buffer, 16 minutes after addition
Experimental: Membrane permeabilization was assessed using E. coli ML-35p as described elsewhere, to monitor the ability of the compounds to perturb the outer and/or cytoplasmic membranes. Reported data were obtained from ≥2 independent experiments performed in duplicate.
Additional support for this view was obtained by comparing the compounds' susceptibility to damage gram-negative bacteria membranes, using the E. coli mutant ML-35p. Widely described in the literature, the mutant was considered herein as representative of all gram-negative bacteria, rather than a specific species. This mutant is constitutive for cytoplasmic β-galactosidase, lacks lactose permease, and expresses a plasmid-encoded periplasmic β-lactamase. Two chromogenic reporter molecules (nitrocefin and 2-nitrophenyl β-d-galactopyranoside, respectively, absorbing at 486 and 420 nm) were used to monitor permeabilization of the outer membrane and/or cytoplasmic membrane in a single assay.

OM = assay: Outer membrane damage by less hydrophobic analogs; assay type: cell-based
Escherichia coli 25922 [12] = assay: Mouse peritonitis-sepsis model; assay type: in vivo; settings: neutropenic ICR mice; erythromycin 100 mg/kg s.c. + Compound B […] s.c.
Experimental: A mouse peritonitis-sepsis model was created as described elsewhere. Infection was obtained after intraperitoneal injection of bacteria from a logarithmic-phase culture. Infected mice were treated subcutaneously. The doses were selected to allow comparison with the reference compound and to remain below the maximum tolerated dose after double-dose administration. […] Briefly, mouse peritonitis sepsis model for in vivo studies were performed using male ICR mice ([…]) obtained from Envigo Laboratories (Rehovot, Israel). […] Infection was obtained by intraperitoneal injection of a logarithmic phase culture of E. coli 25922 (1.3±0.2×10^6 CFU permouse in 0.3 ml PBS). […] Infection control mice were injected with the PBS vehicle. Mouse survival was monitored for up to 7 days after treatment. Statistical analyses were performed by paired Student's t test, at α=0.05.

E. coli strain 14182 = assay: Checkerboard antibiotic MIC with Compound B; assay type: cell-based, Escherichia coli
Experimental: as §3
(§4) Shown in parentheses are calculated sensitization factor, defined as antibiotic's MICs ratio (in absence vs. presence of Compound B) at specified Compound B concentration.

E. coli strain 14384 = assay: Checkerboard antibiotic MIC with Compound B; assay type: cell-based, Escherichia coli
Experimental: as §3, §4

E. coli strain 16327 = assay: Checkerboard antibiotic MIC with Compound B; assay type: cell-based, Escherichia coli
Experimental: as §3, §4

E. coli strain 25922 = assay: Checkerboard antibiotic MIC with Compound B; assay type: cell-based, Escherichia coli
Experimental: as §3, §4

E. coli strain 35218 = assay: Checkerboard antibiotic MIC with Compound B; assay type: cell-based, Escherichia coli
Experimental: as §3, §4

E. coli 25922 [13] = assay: Simultaneous versus delayed drug exposure assay in LB; assay type: cell-based, Escherichia coli; settings: Compound B 10 μM with 0.06 μg/ml rifampin or 4 μg/ml erythromycin, LB
Experimental: (§5) Time-kill kinetics data were determined using 100 μl of bacterial suspension (10^6 CFU/ml), which was added to […] LB containing none of or specified concentrations of the tested compound, antibiotic, and combinations thereof. After the specified exposure time points (37° C. under shaking), aliquots were formed, subjected to serial 10-fold dilutions in saline (0.85% NaCl), and plated for bacterial enumeration after additional 24 hours incubation at 37° C. Time-kill experiments in human and mouse plasma were performed as described elsewhere. The effects of drug delay were assessed in LB, except that bacteria were pre-incubated with the tested compound or antibiotic for the specified time points, centrifuged, and resuspended in fresh LB-containing antibiotic or the tested compound, respectively, and incubated for 3 hours before CFU enumeration.

E. coli 25922 [14] = assay: Time-kill kinetics in broth versus plasma; assay type: cell-based, Escherichia coli
Experimental: as §5

[15] = Subcutaneous 25 mg/kg, published data, cited from earlier work
Escherichia coli 25922 [16] = assay: Mouse thigh infection model; assay type: in vivo; settings: normal mice inoculated intramuscularly, treated s.c. 1 hour thereafter, CFU 24 hours post-treatment
Experimental: Mouse thigh infection model was afforded from normal ICR mice, which were inoculated intramuscularly and treated subcutaneously 1 hour thereafter with a tested compound or polymyxin B (PMB; Sigma-Aldrich) as described elsewhere. P values were calculated using a 1-tailed t test (assuming unequal variance). A P value of <0.05 is considered statistically significant.

E. coli 25922 [17] = assay: Ethidium bromide permeability assay; assay type: cell-based, Escherichia coli; settings: t=20 minutes
Experimental: Ethidium bromide permeability assays were performed as follows: Overnight cultures were adjusted to 1.0 OD (600 nm) and centrifuged for 5 minutes at 15,000 g. Pellets were washed twice with PBS containing 0.5% glucose, resuspended, and incubated for 10 minutes at 37° C. with shaking. A […] suspension was mixed in a black 96-well plate with […] of the tested compound and ethidiumbromide (1 μg/ml), and the fluorescence was recorded (excitation 535 nm, emission 590 nm) for up to 30 minutes at 37° C. with shaking. Data were obtained from at least 2 independent experiments.
(FU denotes fluorescence units; triangles denote Compound B, circles denote PMB, squares denote untreated control; error bars=SD).

[18] = 20 mg/kg body weight; reported; cited from earlier work

CCCCCCCCCC(=O)NC(CCCCN)C(=O)NC(CCCCN)C(=O)NCCCCCCCCCCCC(=O)NC(CCCCN)C(N)=O (stereo not drawn) [Compound A] (Decanoyl-KK[12Ado]K-NH2; configuration not given here)
Q, charge at physiological pH [1]: 3
H, hydrophobicity [2]: 44%
CAC, critical aggregation concentration [3]: >100 µM
CC50 at 3 h (Hemolytic assay): > 100 µM
MIC (Escherichia coli 25922 [4]; 25922): > 50 µM
MIC (Escherichia coli ML35p): > 50 µM
MIC [5]; 1287: > 50 µM
MIC [6]: > 50 µM
MIC [7]; 11662: > 50 µM
MIC [8]; 11816: > 50 µM
MIC ([9]; CHOLERAESUIS / SC7308): > 50 µM
MIC [10]: > 50 µM
cytoplasmic membrane permeabilization [11]: similarly unable to permeabilize the cytoplasmic membrane at least up to approximately 10 μM
outer membrane permeabilization [11]: similarly potent in inducing outer membrane permeabilization

CCCCCCCC(=O)N[C@@H](CCCCN)C(=O)N[C@@H](CCCCN)C(=O)NCCCCCCCCCCCC(=O)N[C@@H](CCCCN)C(N)=O [Compound C8KKC12K] (Octanoyl-KK[12Ado]K-NH2)
damage to the OM (OM): able to damage the OM

CCCCCCCCCC(=O)NC(CCCNC(=N)N)C(=O)NC(CCCNC(=N)N)C(=O)NCCCCCCCCCCCC(=O)NC(CCCNC(=N)N)C(N)=O (stereo not drawn) [Compound C] (Decanoyl-RR[12Ado]R-NH2; configuration not given here)
Q, charge at physiological pH [1]: 3
H, hydrophobicity [2]: 46%
CAC, critical aggregation concentration [3]: >100 µM
CC50 at 3 h (Hemolytic assay): 80 ± 1 µM
MIC (Escherichia coli 25922 [4]; Ec 25922, overnight incubation, read-out: MIC): 25 µM (≈ 20.9 µg/mL)
MIC (Escherichia coli ML35p): 12.5 µM (≈ 10.5 µg/mL)
MIC ([5]; Kp 1287, overnight incubation, read-out: MIC): 50 µM (≈ 41.9 µg/mL)
MIC ([6]; Kp C2, overnight incubation, read-out: MIC): > 50 µM
MIC ([7]; Pa 11662, overnight incubation, read-out: MIC): 50 µM (≈ 41.9 µg/mL)
MIC ([8]; Pa 11816, overnight incubation, read-out: MIC): 50 µM (≈ 41.9 µg/mL)
MIC ([9]; CHOLERAESUIS / SC7308, SC 7308, overnight incubation, read-out: MIC): > 50 µM
MIC ([10]; ST 14028, overnight incubation, read-out: MIC): > 50 µM
cytoplasmic membrane permeabilization [11]: somewhat higher tendency for cytoplasmic membrane damaging

CC[C@H]1OC(=O)[C@H](C)[C@@H](O[C@H]2C[C@@](C)(OC)[C@@H](O)[C@H](C)O2)[C@H](C)[C@@H](O[C@@H]2O[C@H](C)C[C@H](N(C)C)[C@H]2O)[C@](C)(O)C[C@@H](C)C(=O)[C@H](C)[C@@H](O)[C@]1(C)O [Erythromycin, erythromycin]
efficacy of combination vs individual administrations (Escherichia coli 25922 [12]): clearly more effective in combination
Antibiotic MIC in the presence of Compound B (E. coli strain 14182; Compound B 2.5 μM): 16 µg/mL
Antibiotic MIC in the presence of Compound B (E. coli strain 14182; Compound B 5 μM): 4 µg/mL
Antibiotic MIC in the presence of Compound B (E. coli strain 14182; Compound B 10 μM): 1 µg/mL
Antibiotic MIC in the presence of Compound B (E. coli strain 14384; Compound B 0 μM): >512 µg/mL
Antibiotic MIC in the presence of Compound B (E. coli strain 14384; Compound B 2.5 μM): 2 µg/mL
Antibiotic MIC in the presence of Compound B (E. coli strain 14384; Compound B 5 μM): 1 µg/mL
Antibiotic MIC in the presence of Compound B (E. coli strain 14384; Compound B 10 μM): 0.5 µg/mL
Antibiotic MIC in the presence of Compound B (E. coli strain 14384; Compound B […]): 64 µg/mL
Antibiotic MIC in the presence of Compound B (E. coli strain 16327; Compound B 0 μM): 512 µg/mL
Antibiotic MIC in the presence of Compound B (E. coli strain 16327; Compound B 2.5 μM): 4 µg/mL
Antibiotic MIC in the presence of Compound B (E. coli strain 16327; Compound B 5 μM): 1 µg/mL
Antibiotic MIC in the presence of Compound B (E. coli strain 16327; Compound B 10 μM): 0.5 µg/mL
Antibiotic MIC in the presence of Compound B (E. coli strain 16327; Compound B […]): 64 µg/mL
Antibiotic MIC in the presence of Compound B (E. coli strain 25922; Compound B 2.5 μM): 2 µg/mL
Antibiotic MIC in the presence of Compound B (E. coli strain 25922; Compound B 5 μM): 0.5 to 1 µg/mL
Antibiotic MIC in the presence of Compound B (E. coli strain 25922; Compound B 10 μM): 0.25 µg/mL
Antibiotic MIC in the presence of Compound B (E. coli strain 25922; Compound B […]): 8 µg/mL
Antibiotic MIC in the presence of Compound B (E. coli strain 35218; Compound B 2.5 μM): 4 µg/mL
Antibiotic MIC in the presence of Compound B (E. coli strain 35218; Compound B 5 μM): 1 µg/mL
Antibiotic MIC in the presence of Compound B (E. coli strain 35218; Compound B 10 μM): 0.5 µg/mL
Antibiotic MIC in the presence of Compound B (E. coli strain 35218; Compound B […]): 64 µg/mL
effect of delayed exposure on sensitization by Compound B (E. coli 25922 [13]): delay by up to 60 (but not 120) minutes revealed maintenance of the sensitization activity
effect on CFU count (E. coli 25922 [14]; LB broth, 24-hours end point, erythromycin 3 μg/ml combined with Compound B 0.6 μM): did not alter the CFU count
time to accomplish the CFU reduction (more than 3 log units) (E. coli 25922 [14]; human plasma, antibiotic with Compound B 0.6 μM): ≤ 3 hours
combined action with Compound B (E. coli 25922 [14]; mouse plasma, 24 hours end point, Compound B 10 μM with rifampin 1 μg/ml or erythromycin 3 μg/ml): expressed synergism of action
Plasma concentration ([15]; 0.5 h): 3700 ng/mL
Plasma concentration ([15]; 1 h): 2300 ng/mL
Plasma concentration ([15]; 2 h): 400 ng/mL

polymyxin B [PMB]
reduction of the number of inoculated E. coli (Escherichia coli 25922 [16]): 64%
CM permeability to ethidium bromide (E. coli 25922 [17]): increased significantly more than Compound B
mortality [18]: zero
